These results are taken from patent US8637510B2, “Morpholinothiazoles as alpha 7 positive allosteric modulators” (Janssen Pharmaceutica NV, priority 2009, dated 2014).

The target of data set [1] is T1, human alpha 7-wt nAChR-expressing GH4C1 cells (Homo sapiens, UniProt P36544).
T1 construct: expressed in transfected cells
In words: Patch-clamp current recording (whole-cell voltage-clamp, PAM type classification). Format: cell-based. The conditions noted are these: 1 mM choline. Further details: key: Type 0 compounds minimally change the effect size of the current elicited by 1 mM choline.; Type 1 compounds enhance the effect size of the current elicited by 1 mM choline but minimally alter the kinetics of the receptor.; Type 2 compounds enhance the effect size of the current elicited by 1 mM choline while reducing the rate and/or the extent of desensitization.; Type 3 compounds enhance the effect size of the current elicited by 1 mM choline. When tested at higher concentrations up to 10 μM they completely inhibit desensitization; Type 4 compounds allow for an initial desensitization of the receptor followed by a re-opening of the receptor during agonist application. The method, then:
The compounds of the present invention are classified as type 1-4, based on qualitative kinetic properties, as determined by whole-cell voltage-clamp recordings. This classification is based on the effect of an alpha 7 PAM compound, as described hereinbefore, on the signal elicited by an agonist application. In particular, said agonist is choline at a concentration of 1 mM. In a preferred experimental setting, said alpha 7 PAM compound and choline are simultaneously applied to the cell, as described hereinafter. Desensitization is defined as the closure of the receptor upon activation during the application of the agonist in whole-cell voltage-clamp electrophysiology measurements seen as the reduction of the […] current after initial activation by the agonist.
The definition of the PAM types 1-4 is described hereinafter: • Type 0 compounds minimally change the effect size of the current elicited by 1 mM choline. • Type 1 compounds enhance the effect size of the current elicited by 1 mM choline but minimally alter the kinetics of the receptor. In particular, the rate and the extent of desensitization and of deactivation of the receptor elicited by the agonist is not affected. The compound-modulated response to 1 mM choline, therefore, is close to a linear scaling of the 1 mM choline response in absence of the alpha 7 PAM compound. • Type 2 compounds enhance the effect size of the current elicited by 1 mM choline while reducing the rate and/or the extent of desensitization. Deactivation of the receptor is generally unaffected. • Type 3 compounds enhance the effect size of the current elicited by 1 mM choline. […] Deactivation of the receptor may be slowed down • Type 4 compounds allow for an initial desensitization of the receptor followed by a re-opening of the receptor during agonist application. At low-potency concentrations of the alpha 7 PAM compound, the agonist-induced activation, which is followed by desensitization, can still be separated from the compound-induced re-opening as an initial inward current-maximum. At higher potency concentrations of the alpha 7 PAM compound, the re-opening occurs faster than the closure due to desensitization so that the initial current-maximum disappears.
A compound was considered to have interesting PAM-like activity when the potentiation of the peak current was at least 200% compared to the control choline response (=100%). Such compounds are classified as belonging to a particular PAM type in the Experimental Part. Compounds not meeting the condition are not classified as belonging to a particular PAM-type.
The compounds also have a potentiating effect on the response to choline when measured by whole-cell patch clamp electrophysiology in GH4C1 cells stably over-expressing the human wild-type alpha 7 receptor.
Patch-clamp recording from mammalian cells has provided a powerful means of assessing the function of membrane-bound proteins thought to be subunits of ligand-gated ion channels. Activation of such proteins by endogenous or exogenous ligands cause opening of a pore associated with the receptor through which ions flow down their electrochemical gradient. In the case of the human alpha 7-wt nAChR-expressing GH4C1 recombinant cell line the preferential permeability to calcium of this receptor means that calcium flows into the cell upon activation by ACh, choline and other nicotinic ligands giving rise to a calcium current. Since this receptor rapidly desensitizes in the presence of agonist it is important that an application system is used which is capable of very rapid switching of solutions (<100 ms) to prevent partial or full desensitisation of receptor responses coincident with the time of agonist application. Consequently, a second convenient technique to assess the enhancement of nicotinic efficacy is a patch-clamp recording from human alpha 7-wt nAChR-expressing GH4C1 cells coupled with a rapid-application system. […]
Background: The patch-clamp technique gives a direct electrical read-out from membranes.

Another data set concerns the target T2, human alpha 7-wt nAChR (Homo sapiens, UniProt P36544).
T2 construct: expressed in transfected cells
The data set can be described thus: Ca2+ flux imaging (FDSS) (Protocol B). Format: cell-based. The conditions noted are these: for Emax: read-out: a7-PAM-G_[33]_Eff_Curve_FI % Efficacy; for EC50: potentiation of 100 μM choline, compounds 0.01 μM to 30 μM, read-out: a7-PAM-G_[33]_pEC50 pEC50 (converted). The method, boiled down:
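Fluo-4AM-loaded cells expressing human α7-wt nAChR, in HBSS with 10 mM HEPES, 5 mM CaCl2, 0.1% BSA, received compound (0.01–30 μM), typically 10 min before 100 μM choline, with calcium flux read in real time. Potentiation is relative to choline alone (100%); EC50 from sigmoidal curves.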
(A change in cytosolic calcium serves as a functional read-out for many receptors and channels.)

The mark [2] stands for this setting: efficacy of 100 μM choline defined as 100% in the absence of a PAM.

T2 sequence (P36544 23-502): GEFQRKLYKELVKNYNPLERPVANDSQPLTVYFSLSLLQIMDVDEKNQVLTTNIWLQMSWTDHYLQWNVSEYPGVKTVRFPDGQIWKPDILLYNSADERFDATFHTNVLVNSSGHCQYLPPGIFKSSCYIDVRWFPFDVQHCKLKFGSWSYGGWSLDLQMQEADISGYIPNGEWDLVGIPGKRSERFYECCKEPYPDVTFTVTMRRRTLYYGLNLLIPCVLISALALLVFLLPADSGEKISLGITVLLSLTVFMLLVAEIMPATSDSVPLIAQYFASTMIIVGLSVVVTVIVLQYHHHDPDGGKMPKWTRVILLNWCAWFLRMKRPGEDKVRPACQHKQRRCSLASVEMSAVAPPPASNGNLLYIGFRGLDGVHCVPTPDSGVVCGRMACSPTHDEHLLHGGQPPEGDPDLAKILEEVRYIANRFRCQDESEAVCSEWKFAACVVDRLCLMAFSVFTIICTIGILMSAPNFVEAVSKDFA
T1 sequence (P36544 23-502): as above

As for `Cc1cc(-c2sc(N3C[C@@H](C)O[C@@H](C)C3)nc2CNC(=O)C(C)C)cc(C)n1` [Compound 40, N-[[2-[(2R,6S)-2,6-dimethyl-4-morpholinyl]-5-(2,6-dimethyl-4-pyridinyl)-4-thiazolyl]methyl]-2-methyl-propanamide], in data set [1], the “PAM_Type PAM type” value is reported as 2. In addition, the Emax at human alpha 7-wt nAChR (setting [2]) amounted to 965%. Besides, the EC50 at human alpha 7-wt nAChR was 100 nM.

For `Cc1cc(-c2sc(N3C[C@@H](C)O[C@@H](C)C3)nc2CNC(=O)C(C)C2CC2)cc(C)n1` (stereo partly drawn) [Compound 179, N-[[2-[(2R,6S)-2,6-dimethyl-4-morpholinyl]-5-(2,6-dimethyl-4-pyridinyl)-4-thiazolyl]methyl]-α-methyl-cyclopropaneacetamide], the “PAM_Type PAM type” value in data set [1] was 2. Moreover, at human alpha 7-wt nAChR (setting [2]), the Emax is 707%. The EC50 on human alpha 7-wt nAChR is 97.7 nM.

Turning to `Cc1cc(-c2sc(N3C[C@@H](C)O[C@@H](C)C3)nc2CNC(=O)c2ccc(Cl)cc2)cc(C)n1` [Compound 19, 4-chloro-N-[[2-[(2R,6S)-2,6-dimethyl-4-morpholinyl]-5-(2,6-dimethyl-4-pyridinyl)-4-thiazolyl]methyl]-benzamide], the “PAM_Type PAM type” value in data set [1] was determined as 2. Also, the Emax on human alpha 7-wt nAChR (setting [2]) came out at 378%. For the same compound, the EC50 on human alpha 7-wt nAChR is 100 nM.

For `Cc1cc(-c2sc(N3C[C@@H](C)O[C@@H](C)C3)nc2CNC(=O)c2ccc(C(F)(F)F)cc2)cc(C)n1` [Compound 23, N-[[2-[(2R,6S)-2,6-dimethyl-4-morpholinyl]-5-(2,6-dimethyl-4-pyridinyl)-4-thiazolyl]methyl]-4-(trifluoromethyl)-benzamide], the “PAM_Type PAM type” value in data set [1] is 2. The Emax at human alpha 7-wt nAChR (setting [2]) was 594%. In addition, on human alpha 7-wt nAChR, the EC50 was 229 nM.

Consider `Cc1cc(-c2sc(N3C[C@@H](C)O[C@@H](C)C3)nc2CNC(=O)c2c(C)noc2C)cc(C)n1` [Compound 25, N-[[2-[(2R,6S)-2,6-dimethyl-4-morpholinyl]-5-(2,6-dimethyl-4-pyridinyl)-4-thiazolyl]methyl]-3,5-dimethyl-4-isoxazolecarboxamide], for which the “PAM_Type PAM type” value in data set [1] was 0. Besides, the Emax on human alpha 7-wt nAChR (setting [2]) was 235%. Moreover, the EC50 at human alpha 7-wt nAChR is 813 nM.

`Cc1cc(-c2sc(N3C[C@@H](C)O[C@@H](C)C3)nc2CNC(=O)c2ccc(F)cc2)cc(C)n1` [Compound 8, N-[[2-[(2R,6S)-2,6-dimethyl-4-morpholinyl]-5-(2,6-dimethyl-4-pyridinyl)-4-thiazolyl]methyl]-4-fluoro-benzamide]: the “PAM_Type PAM type” value in data set [1] came to 2. For the same compound, the Emax at human alpha 7-wt nAChR (setting [2]) was 452%. Also, on human alpha 7-wt nAChR, the EC50 was 457 nM.

For `Cc1cc(-c2sc(N3C[C@@H](C)O[C@@H](C)C3)nc2CNC(=O)c2ccc(F)cc2C)cc(C)n1` [Compound 24, N-[[2-[(2R,6S)-2,6-dimethyl-4-morpholinyl]-5-(2,6-dimethyl-4-pyridinyl)-4-thiazolyl]methyl]-4-fluoro-2-methyl-benzamide], the “PAM_Type PAM type” value in data set [1] is listed as 2. Besides, the Emax at human alpha 7-wt nAChR (setting [2]) was determined as 526%. Further, the EC50 on human alpha 7-wt nAChR was 17.4 nM.

As for `Cc1cc(-c2sc(N3C[C@@H](C)O[C@@H](C)C3)nc2CNC(=O)c2nc(C)oc2C)cc(C)n1` [Compound 134, N-[[2-[(2R,6S)-2,6-dimethyl-4-morpholinyl]-5-(2,6-dimethyl-4-pyridinyl)-4-thiazolyl]methyl]-2,5-dimethyl-4-oxazolecarboxamide], the “PAM_Type PAM type” value in data set [1] is given as 0. Moreover, the Emax on human alpha 7-wt nAChR (setting [2]) is 464%. The EC50 at human alpha 7-wt nAChR was 2400 nM.

The compound `Cc1cc(-c2sc(N3C[C@@H](C)O[C@@H](C)C3)nc2CNC(=O)C2CCCC2)c(C)cn1` [Compound 96, N-[[2-[(2R,6S)-2,6-dimethyl-4-morpholinyl]-5-(2,5-dimethyl-4-pyridinyl)-4-thiazolyl]methyl]-cyclopentanecarboxamide] displayed a melting point of 173 °C. The Emax on human alpha 7-wt nAChR (setting [2]) is 420%. The EC50 on human alpha 7-wt nAChR is 676 nM.

As to `Cc1cc(-c2sc(N3CC(C)OC(C(F)(F)F)C3)nc2CNC(=O)CC2CC2)cc(C)n1` (single isomer, unassigned) [Compound 206, N-[[5-(2,6-dimethyl-4-pyridinyl)-2-[2-methyl-6-(trifluoromethyl)-4-morpholinyl]-4-thiazolyl]methyl]-cyclopropaneacetamide], the melting point is 150 °C. The Emax on human alpha 7-wt nAChR (setting [2]) came to 985%. Further, at human alpha 7-wt nAChR, the EC50 was 43.7 nM.

`Cc1cc(-c2sc(N3CCOCC3)nc2CNC(=O)CC2CC2)cc(C)n1` [Compound 64, N-[[5-(2,6-dimethyl-4-pyridinyl)-2-(4-morpholinyl)-4-thiazolyl]methyl]-cyclopropaneacetamide] had a melting point of 188 °C. At human alpha 7-wt nAChR (setting [2]), the Emax is 980%.

Compound `Cc1cc(-c2sc(N3CCOC[C@@H]3C)nc2CNC(=O)CC2CC2)cc(C)n1` [Compound 187, N-[[5-(2,6-dimethyl-4-pyridinyl)-2-[(3S)-3-methyl-4-morpholinyl]-4-thiazolyl]methyl]-cyclopropaneacetamide] displayed a melting point of 138 °C. Besides, on human alpha 7-wt nAChR (setting [2]), the Emax was determined as 994%. Besides, on human alpha 7-wt nAChR, the EC50 is 5250 nM.

For the compound `Cc1cc(-c2sc(N3CCOCC3)nc2CNC(=O)c2ccc(F)cc2)cc(C)n1` [Compound 66, N-[[5-(2,6-dimethyl-4-pyridinyl)-2-(4-morpholinyl)-4-thiazolyl]methyl]-4-fluoro-benzamide], the melting point is 210 °C. For the same compound, the EC50 at human alpha 7-wt nAChR is 1200 nM.

`Cc1ccc(-c2sc(N3C[C@@H](C)O[C@@H](C)C3)nc2CNC(=O)C2CCC2)cn1` [Compound 120, N-[[2-[(2R,6S)-2,6-dimethyl-4-morpholinyl]-5-(6-methyl-3-pyridinyl)-4-thiazolyl]methyl]-cyclobutanecarboxamide] came in with a melting point of 139 °C. The Emax on human alpha 7-wt nAChR (setting [2]) turned out to be 567%.

In turn, `Cc1ccc(-c2sc(N3C[C@@H](C)O[C@@H](C)C3)nc2CNC(=O)c2ccc(Cl)cc2)cn1` [Compound 123, 4-chloro-N-[[2-[(2R,6S)-2,6-dimethyl-4-morpholinyl]-5-(6-methyl-3-pyridinyl)-4-thiazolyl]methyl]-benzamide] had a melting point of 208 °C. The Emax on human alpha 7-wt nAChR (setting [2]) stood at 636%. At human alpha 7-wt nAChR, the EC50 is 389 nM.

On to `Cc1cc(-c2sc(N3CC(C)OC(C(F)(F)F)C3)nc2CNC(=O)CC2CC2)cc(C)n1` (racemic) [Compound 205, N-[[5-(2,6-dimethyl-4-pyridinyl)-2-[2-methyl-6-(trifluoromethyl)-4-morpholinyl]-4-thiazolyl]methyl]-cyclopropaneacetamide], for which the melting point came out at 148 °C. For the same compound, the “a7-PAM-G_[33]_Eff_Curve_FI % Efficacy” value on human alpha 7-wt nAChR (setting [2]) is listed as 883%. Moreover, the EC50 on human alpha 7-wt nAChR was 38 nM.

In turn, `Cc1cc(-c2sc(N3C[C@@H](C)O[C@@H](C)C3)nc2CNC(=O)c2cnn(C)c2C)cc(C)n1` [Compound 160, N-[[2-[(2R,6S)-2,6-dimethyl-4-morpholinyl]-5-(2,6-dimethyl-4-pyridinyl)-4-thiazolyl]methyl]-1,5-dimethyl-1H-pyrazole-4-carboxamide] had a melting point of 169 °C. Moreover, at human alpha 7-wt nAChR, the EC50 was 8130 nM.

By melting point is commonly meant the temperature of the solid-liquid transition.
